The source of these data is patent publication US20140213520A1, “METHODS OF TREATING CARDIOVASCULAR INDICATIONS” (Cardiorentis Ltd., priority 2013, published 2014).

Assay type in all cases: cell-based
Test [1] deals with Cardiac microvascular endothelial cells (HCMEC). As to the kind of experiment: apoptosis ELISA measuring DNA fragmentation in HCMEC exposed to conditioned milieu (cocktail). Conditions: HCMEC exposed 30 hours to cocktail (C-reactive protein, TNF-alpha, IL-1β, endothelin-1, galectin-3); treated at 2, 4, 6, 10 or 24 hours; FIG. 1. The procedure:
(§1) Cardiac microvascular endothelial cells (“HCMEC”) were exposed for 30 hours to a conditioned milieu (“cocktail”) containing a selection of factors (C-reactive protein at 10 μg/ml, TNF-alpha at 10 μg/ml, IL-1β at 10 ng/ml, endothelin-1 at 10 pg/ml and galectin-3 at 20 ng/ml) found in the plasma of ADHF patients. […] The cells from each exposure were harvested at 30 hours for experimental data. Experimental readouts included apoptosis, total protein nitrosylation and lactate dehydrogenase (“LDH”) assay.
In the data represented by FIG. 1, apoptosis was assessed by performing an ELISA (enzyme-linked immunosorbent assay) measuring DNA fragmentation.
(In an ELISA, binding on a coated surface is turned into a signal by an enzyme label.)

Test [2] shares this test system. The test can be described thus: total protein nitrosylation by western blotting in HCMEC exposed to cocktail. Conditions: HCMEC exposed 30 hours to cocktail; treated at 2, 4, 6, 10 or 24 hours; FIG. 2. The procedure:
as §1
The data represented by FIG. 2 is directed to protein nitrosylation which is a postranlational modification caused by peroxynitrite. Peroxynitrite (ONOO^−) results from the scavenging action of superoxide anion (O2^−) on nitric oxide (NO) and results in a decreased bioavailability of the latter. Protein Nitrosylation has several deleterious effects on key vasoactive factors and their function, e.g. prostacyclin synthase is inactivated by nitrosylation.
On the technique in general: In western blotting, separated proteins are transferred to a membrane and probed.

The test system is the same in test [3]. The test can be described thus: LDH assay: LDH release into culture medium by spectrophotometry. Conditions: HCMEC exposed 30 hours to cocktail; treatment at two hours; FIG. 3. The procedure: as §1
FIG. 3 depicts a LDH assay that was performed by measuring LDH release (by spectrophotometry) in the medium where cells were cultured. LDH is a cytoplasmic enzyme released by cells following membrane damage (i.e., cell death).
Background: LDH leaks from cells whose membrane has failed.

relaxin: in test [1], the “cocktail-induced apoptosis (DNA fragmentation ELISA)” value is “decrease cocktail-induced apoptosis”. The “protein nitrosylation (western blotting)” value in test [2] is given as “antioxidant property that decreases over time”. Also, the “LDH release (cell death)” value in test [3] is reported as “increase in cell death”.
